Source: patent US20230021483A1, “[…] […] METHOD AND CLASSIFICATION OF PHARMACEUTICAL COMPONENTS BY USING TRANSCRIPTOMES” (National Institutes of Biomedical Innovation, Health and …, priority 2016, published 2023)

Columns and labels:
LV, SP and LNs = assay: Whole organ transcriptome across organs (adjuvant gene space): gene responses and adjuvant grouping; format: in vivo, C57BL/6 mice; conditions: hierarchical clustering; LV, SP and/or LNs
[1] = test system: adjuvant-associated biological themes in LV, SP, LN; conditions: LV, ID
How it was run: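 Per-mouse whole-organ transcriptomes; genes with eij/ei(c)>2.0 tested for theme enrichment via TargetMine (GO, KEGG, Reactome, others), Fisher's exact test, Holm-Bonferroni correction. Themes shared by all three mice kept at p<0.05, using the smallest p. Score per adjuvant-associated term = Σ−log(p) of matching themes.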

SMILES: Nc1nc2c(ncn2[C@@H]2O[C@@H]3COP(=O)(O)O[C@H]4[C@@H](O)[C@H](n5cnc6c(N)ncnc65)O[C@@H]4COP(=O)(O)O[C@@H]2[C@@H]3O)c(=O)[nH]1 [cGAMP, Cyclic [G(2′,5′)pA(3′,5′)p]]
- adjuvant group (cluster) within the adjuvant gene space (LV, SP and LNs): group (G) 1
- GO annotation: Cytokine-cytokine receptor interaction (Term: cytokine) [1]: 5.57
- GO annotation: Cytokine-cytokine receptor interaction|Endocytosis (Term: cytokine) [1]: 24.6
- GO annotation: NF-kappa B signaling pathway (Term: NF-kappa B signaling pathway) [1]: 4.86
- GO annotation: TNF signaling pathway (Term: TNF signaling pathway) [1]: 27.6
- GO annotation: activation of immune response (Term: immune response) [1]: 12.6
- GO annotation: activation of innate immune response (Term: innate immune response) [1]: 16.9
- GO annotation: acute inflammatory response (Term: inflammatory response) [1]: 0
- GO annotation: adaptive immune response (Term: adaptive immune response) [1]: 0
- GO annotation: adaptive immune response based on somatic recombination of immune receptors built from immunoglobulin superfamily domains (Term: adaptive immune response) [1]: 3.78
- GO annotation: apoptotic process (Term: apoptosis) [1]: 4.46
- GO annotation: apoptotic signaling pathway (Term: apoptosis) [1]: 0
- GO annotation: cell chemotaxis (Term: chemotaxis) [1]: 4.4
- GO annotation: cell death (Term: cell death) [1]: 10.2
- GO annotation: cell migration (Term: migration) [1]: 0
- GO annotation: cellular response to cytokine stimulus (Term: cytokine) [1]: 32.9
- GO annotation: cellular response to interferon-alpha (Term: IFN alpha) [1]: 6.72
- GO annotation: cellular response to stress (Term: stress) [1]: 0
- GO annotation: chemokine production (Term: chemokine) [1]: 0
- GO annotation: chemokine-mediated signaling pathway (Term: chemokine) [1]: 0
- GO annotation: chemotaxis (Term: chemotaxis) [1]: 0
- GO annotation: cytokine biosynthetic process (Term: cytokine) [1]: 6.84
- GO annotation: cytokine metabolic process (Term: cytokine) [1]: 8.21
- GO annotation: cytokine production (Term: cytokine) [1]: 17.4
- GO annotation: cytokine secretion (Term: cytokine) [1]: 0
- GO annotation: cytokine-mediated signaling pathway (Term: cytokine) [1]: 16.4
- GO annotation: death (Term: cell death) [1]: 4.77
- GO annotation: defense response (Term: defense response) [1]: 62.7
- GO annotation: defense response to Gram-positive bacterium (Term: defense response) [1]: 0
- GO annotation: defense response to bacterium (Term: defense response) [1]: 8.38
- GO annotation: defense response to other organism (Term: defense response) [1]: 37
- GO annotation: defense response to protozoan (Term: defense response) [1]: 4.37
- GO annotation: defense response to virus (Term: defense response) [1]: 19.8
- GO annotation: granulocyte chemotaxis (Term: chemotaxis) [1]: 0
- GO annotation: granulocyte migration (Term: migration) [1]: 0
- GO annotation: immune response (Term: immune response) [1]: 42.2
- GO annotation: immune response-activating signal transduction (Term: immune response) [1]: 14.1
- GO annotation: immune response-regulating signaling pathway (Term: immune response) [1]: 17.6
- GO annotation: inflammatory response (Term: inflammatory response) [1]: 11.5
- GO annotation: innate immune response (Term: innate immune response) [1]: 31.4
- GO annotation: innate immune response-activating signal transduction (Term: innate immune response) [1]: 16.2
- GO annotation: interferon-alpha production (Term: IFN alpha) [1]: 3.79
- GO annotation: intrinsic apoptotic signaling pathway (Term: apoptosis) [1]: 0
- GO annotation: leukocyte chemotaxis (Term: chemotaxis) [1]: 0
- GO annotation: leukocyte migration (Term: migration) [1]: 0
- GO annotation: leukocyte migration involved in inflammatory response (Term: inflammatory response) [1]: 0
- GO annotation: lymphocyte chemotaxis (Term: chemotaxis) [1]: 0
- GO annotation: lymphocyte migration (Term: migration) [1]: 0
- GO annotation: myeloid leukocyte migration (Term: migration) [1]: 0
- GO annotation: negative regulation of apoptotic process (Term: apoptosis) [1]: 0
- GO annotation: negative regulation of cell death (Term: cell death) [1]: 0
- GO annotation: negative regulation of cytokine production (Term: cytokine) [1]: 3.21
- GO annotation: negative regulation of defense response (Term: defense response) [1]: 0
- GO annotation: negative regulation of immune response (Term: immune response) [1]: 0
- GO annotation: negative regulation of innate immune response (Term: innate immune response) [1]: 0
- GO annotation: negative regulation of programmed cell death (Term: cell death) [1]: 0
- GO annotation: neutrophil chemotaxis (Term: chemotaxis) [1]: 0
- GO annotation: neutrophil migration (Term: migration) [1]: 0
- GO annotation: positive regulation of adaptive immune response (Term: adaptive immune response) [1]: 0
- GO annotation: positive regulation of apoptotic process (Term: apoptosis) [1]: 0
- GO annotation: positive regulation of cell death (Term: cell death) [1]: 0
- GO annotation: positive regulation of cell migration (Term: migration) [1]: 0
- GO annotation: positive regulation of chemokine production (Term: chemokine) [1]: 0
- GO annotation: positive regulation of chemotaxis (Term: chemotaxis) [1]: 0
- GO annotation: positive regulation of cytokine biosynthetic process (Term: cytokine) [1]: 0
- GO annotation: positive regulation of cytokine production (Term: cytokine) [1]: 11.1
- GO annotation: positive regulation of defense response (Term: defense response) [1]: 24.7
- GO annotation: positive regulation of immune response (Term: immune response) [1]: 15.7
- GO annotation: positive regulation of inflammatory response (Term: inflammatory response) [1]: 0
- GO annotation: positive regulation of innate immune response (Term: innate immune response) [1]: 17.2
- GO annotation: positive regulation of interferon-alpha production (Term: IFN alpha) [1]: 4.81
- GO annotation: positive regulation of leukocyte chemotaxis (Term: chemotaxis) [1]: 0
- GO annotation: positive regulation of leukocyte migration (Term: migration) [1]: 0
- GO annotation: positive regulation of programmed cell death (Term: cell death) [1]: 0
- GO annotation: positive regulation of response to wounding (Term: wounding) [1]: 0
- GO annotation: positive regulation of tumor necrosis factor superfamily cytokine (Term: cytokine) [1]: 0
- GO annotation: production of molecular mediator of immune response (Term: immune response) [1]: 0
- GO annotation: programmed cell death (Term: cell death) [1]: 6.49
- GO annotation: regulation of adaptive immune response (Term: adaptive immune response) [1]: 0
- GO annotation: regulation of adaptive immune response based on somatic recombination of immune receptors built from immunoglobulin superfamily domains (Term: adaptive immune response) [1]: 0
- GO annotation: regulation of apoptotic process (Term: apoptosis) [1]: 4.63
- GO annotation: regulation of apoptotic signaling pathway (Term: apoptosis) [1]: 0
- GO annotation: regulation of cell death (Term: cell death) [1]: 3.82
- GO annotation: regulation of cell migration (Term: migration) [1]: 0
- GO annotation: regulation of chemokine production (Term: chemokine) [1]: 0
- GO annotation: regulation of chemotaxis (Term: chemotaxis) [1]: 0
- GO annotation: regulation of cytokine biosynthetic process (Term: cytokine) [1]: 0
- GO annotation: regulation of cytokine production (Term: cytokine) [1]: 19.1
- GO annotation: regulation of defense response (Term: defense response) [1]: 37.5
- GO annotation: regulation of defense response to virus (Term: defense response) [1]: 0
- GO annotation: regulation of defense response to virus by host (Term: defense response) [1]: 0
- GO annotation: regulation of immune response (Term: immune response) [1]: 20.7
- GO annotation: regulation of inflammatory response (Term: inflammatory response) [1]: 0
- GO annotation: regulation of innate immune response (Term: innate immune response) [1]: 24.8
- GO annotation: regulation of interferon-alpha production (Term: IFN alpha) [1]: 4.28
- GO annotation: regulation of intrinsic apoptotic signaling pathway (Term: apoptosis) [1]: 0
- GO annotation: regulation of leukocyte chemotaxis (Term: chemotaxis) [1]: 0
- GO annotation: regulation of leukocyte migration (Term: migration) [1]: 0
- GO annotation: regulation of programmed cell death (Term: cell death) [1]: 4.93
- GO annotation: regulation of response to stress (Term: stress) [1]: 25.3
- GO annotation: regulation of response to wounding (Term: wounding) [1]: 3.31
- GO annotation: regulation of tumor necrosis factor superfamily cytokine production (Term: cytokine) [1]: 0
- GO annotation: response to cytokine (Term: cytokine) [1]: 45.9
- GO annotation: response to interferon-alpha (Term: IFN alpha) [1]: 14.8
- GO annotation: response to stress (Term: stress) [1]: 44.6
- GO annotation: response to wounding (Term: wounding) [1]: 0
- GO annotation: taxis (Term: chemotaxis) [1]: 0
- GO annotation: tumor necrosis factor superfamily cytokine production (Term: cytokine) [1]: 0
- IFN beta: cellular response to interferon-beta [1]: 17.6
- IFN beta: interferon-beta production [1]: 5.22
- IFN beta: positive regulation of interferon-beta production [1]: 9.2
- IFN beta: regulation of interferon-beta production [1]: 5.76
- IFN beta: response to interferon-beta [1]: 23.5
- IFN gamma: cellular response to interferon-gamma [1]: 7.44
- IFN gamma: interferon-gamma production [1]: 0
- IFN gamma: regulation of interferon-gamma production [1]: 0
- IFN gamma: response to interferon-gamma [1]: 10
- interleukin-6: interleukin-6 production [1]: 0
- interleukin-6: positive regulation of interleukin-6 production [1]: 0
- interleukin-6: regulation of interleukin-6 production [1]: 0
- interleukin-12: interleukin-12 production [1]: 0
- interleukin-12: positive regulation of interleukin-12 production [1]: 0
- interleukin-12: regulation of interleukin-12 production [1]: 0
